The source of these data is US20240051940A1, “SULFONAMIDES WITH EGFR INHIBITION ACTIVITIES AND THEIR USE THEREOF” (ACCUTAR BIOTECHNOLOGY INC., priority 2021, published 2024).

Common to all, as to type: cell-based
In one experiment the test system is HCC827. The experiment is described as follows: Cell growth inhibition (CellTiter-Glo), HCC827. The conditions noted are these: Homo sapiens, 72 h, HCC827 cells, 3 days after administration. As to the method:
(§1) 2. Cell Growth Inhibition for HCC827, HCC827-LTC, HCC827-DTC and NCI-H2073.
(§2) HCC827(ATCC), HCC827-LTC, HCC827-DTC and NCI-H2073 (ATCC) were seeded in 96-well plates at 5000 cells/well in 90 μL of RPMI growth medium containing 10% FBS and 1% Penicillin Streptomycin. Cells were incubated at 37° C. overnight. The following day, the test compound was administered to the cells by using 10× compound stock solution prepared in growth medium at various concentrations. After administration of the compound, cells were then incubated at 37° C. for 3 days. Before CellTiter-Glo assay, the plates were equilibrated at room temperature for approximately 10 minutes. 100 ul of CellTiter-Glo® Reagent (Promega) was added to each well. The plates were then incubated at room temperature for 10 minutes and luminescence was recorded by EnSpire plate reader (PerkinElmer).

In experiment [1] the test system is HCC827-LTC (HCC827 cells stably expressing human EGFR L858R/T790M/C797S, endogenous EGFR knocked out). The experiment is described as follows: Cell growth inhibition (CellTiter-Glo), HCC827-LTC. The conditions noted are these: 72 h, 3 days after administration. As to the method:
(§3) 1. Preparation of HCC827-LTC and HCC827-DTC Cell Lines
(§4) HCC827 cells (ATCC) were transduced with lentiviral particles expressing codon-optimized human EGFR L858R/T790M/C797S (LTC) mutant or del19/T790M/C797S (DTC) mutant, and then selecting under 5 ug/ml purimycin treatment for a week to generate HCC827 cells stably expressing EGFR LTC or DTC mutants. Next, endogenous EGFR gene in purimycin-selected HCC827 LTC or DTC cells was knocked out using CRISPR-Cas9 technology to ensure the growth of engineered HCC827 cells was solely dependent on exogenous EGFR LTC or DTC mutants. For the EGFR knockout, gRNA complex was prepared by combining Alt-R CRISPR-Cas9 tracrRNA and EGFR crRNA (5′-[…]-3′ for LTC) or (5′-[…]-3′ for DTC) (IDT-Integrated DNA Technologies), and then EGFR ribonucleoprotein (RNP) complex was prepared by combining gRNA complex and Alt-R S.p. Cas9 Nuclease V3 (IDT-Integrated DNA Technologies). Purimycin-selected HCC827 LTC or DTC cells were then electroporated with EGFR RNP complexes using Neon Transfection System (Thermo Fisher). Single clones of HCC827-LTC or HCC827-DTC with endogenous EGFR knockout were picked one week after electroporation and their EGFR knockout was validated by genomic DNA sequencing. HCC827-LTC or HCC827-DTC single clones were also further validated with loss of inhibitory activity by covalent EGFR inhibitors.
as §1, §2
(In general: Cellular ATP, detected with luciferase, serves as a proxy for viable cell number.)

The next experiment concerns NCI-H2073. Put plainly: Cell growth inhibition (CellTiter-Glo), NCI-H2073. The conditions noted are these: 72 h, NCI-H2073 cells, 3 days after administration. As to the method: as §1, §2
The subject of experiment [2] is HCC827-DTC (HCC827 cells stably expressing human EGFR del19/T790M/C797S, endogenous EGFR knocked out). The experiment is described as follows: Cell growth inhibition (CellTiter-Glo), HCC827-DTC. Conditions: 72 h, 3 days after administration. On the procedure: as §3, §4, §1, §2

In general, GI50 refers to the concentration giving 50% growth inhibition. The low end stands for more potent growth inhibition, the high end for less potent growth inhibition. Take `COc1cc(N2CCC(N3CCN(C)CC3)CC2)c(C)cc1Nc1ncc(Br)c(Nc2ccc3nccnc3c2NS(C)(=O)=O)n1` [Compound 1, N-(6-((5-bromo-2-((2-methoxy-5-methyl-4-(4-(4-methylpiperazin-1-yl)piperidin-1-yl)phenyl)amino)pyrimidin-4-yl)amino)quinoxalin-5-yl)methanesulfonamide]: the 50% growth inhibitory concentration (GI50) lay in the range of 30 to 100 nM in the experiment with HCC827, 100 to 300 nM in experiment [1], 100 to 300 nM in the experiment on NCI-H2073 and 100 to 300 nM in experiment [2].
`CCc1cc(Nc2ncc(Br)c(Nc3ccc4nccnc4c3NS(C)(=O)=O)n2)c(OC)cc1N1CCC(N2CCN(C)CC2)CC1` [Compound 2, N-(6-((5-bromo-2-((5-ethyl-2-methoxy-4-(4-(4-methylpiperazin-1-yl)piperidin-1-yl)phenyl)amino)pyrimidin-4-yl)amino)quinoxalin-5-yl)methanesulfonamide]: the GI50 in the experiment on HCC827 is less than 30 nM; in experiment [1], 30 to 100 nM; in the experiment with NCI-H2073, 100 to 300 nM; in experiment [2], 30 to 100 nM.
Turning to `COc1cc(N2CCC(N3CCN(C)CC3)CC2)c(C)cc1Nc1ncnc(Nc2ccccc2NS(C)(=O)=O)n1` [Compound 3, N-(2-((4-((2-methoxy-5-methyl-4-(4-(4-methylpiperazin-1-yl)piperidin-1-yl)phenyl)amino)-1,3,5-triazin-2-yl)amino)phenyl)methanesulfon-amide], the GI50 in the experiment on HCC827 lay in the range of 30 to 100 nM; in experiment [1], 100 to 300 nM; in the experiment with NCI-H2073, 100 to 300 nM; in experiment [2] it was 100 to 300 nM.
For `COc1cc(N2CCC(N3CCN(C)CC3)CC2)c(C)cc1Nc1ncc(Cl)c(Nc2ccc3nccnc3c2NS(C)(=O)=O)n1` [Compound 4, N-(6-((5-chloro-2-((2-methoxy-5-methyl-4-(4-(4-methylpiperazin-1-yl)piperidin-1-yl)phenyl)amino)pyrimidin-4-yl)amino)quinoxalin-5-yl)methanesulfonamide], the GI50 is less than 30 nM with HCC827, 100 to 300 nM in experiment [1], 30 to 100 nM in the experiment with NCI-H2073 and 30 to 100 nM in experiment [2].
